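1) Cells in 96-well plates. 2) Compound, 48 h, 5 concentrations. 3) Linear interpolation between surrounding doses. 4) Unreached endpoint = highest concentration. TGI: concentration producing complete growth inhibition.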
Key:
Assay in all cases: growth of human tumour cells (NCI), 48 h
[1] = test system: DMS 114 small cell lung
[2] = test system: CAKI-1 renal
[3] = test system: MOLT-4 leukemia
[4] = test system: SNB-78 CNS
[5] = test system: SK-MEL-28 melanoma
[6] = test system: U251 CNS
[7] = test system: M14 melanoma
[8] = test system: 786-0 renal
[9] = test system: HT29 colon
[10] = test system: SF-295 CNS
[11] = test system: LXFL 529 NSCLC
[12] = test system: OVCAR-8 ovarian
[13] = test system: TK-10 renal
[14] = test system: KM12 colon
[15] = test system: NCI-H226 lung
[16] = test system: A498 renal
[17] = test system: NCI-H23 lung
[18] = test system: UACC-62 melanoma
[19] = test system: NCI-H460 lung
[20] = test system: HL-60(TB) leukemia
[21] = test system: EKVX NSCLC
[22] = test system: SN12C renal
[23] = test system: XF 498 CNS
[24] = test system: DMS 273 small cell lung
[25] = test system: RXF 393 renal
[26] = test system: ACHN renal
[27] = test system: KM20L2 colon
[28] = test system: HCC-2998 colon
[29] = test system: SW-620 colon
[30] = test system: SF-539 CNS
[31] = test system: CCRF-CEM leukemia
[32] = test system: LOX IMVI melanoma
[33] = test system: NCI-H522 lung
[34] = test system: A549 NSCLC
[35] = test system: HCT-15 colon
[36] = test system: SK-MEL-5 melanoma
[37] = test system: OVCAR-5 ovarian
[38] = test system: SR leukemia
[39] = test system: OVCAR-3 ovarian
[40] = test system: MALME-3M melanoma
[41] = test system: RPMI-8226 leukemia
[42] = test system: SF-268 CNS
[43] = test system: UO-31 renal
[44] = test system: HOP-62 NSCLC
[45] = test system: OVCAR-4 ovarian
[46] = test system: K-562 leukemia
[47] = test system: SNB-19 CNS
[48] = test system: HCT-116 colon
[49] = test system: IGROV1 ovarian
[50] = test system: COLO 205 colon
[51] = test system: M19-MEL melanoma
[52] = test system: SK-OV-3 ovarian
[53] = test system: UACC-257 melanoma
[54] = test system: SNB-75 CNS
[55] = test system: DLD-1 colon
[56] = test system: SK-MEL-2 melanoma
[57] = test system: HOP-92 NSCLC

COC(=O)c1nn(-c2ccccc2)c(=O)cc1N=[N+]=[N-]
TGI [1]: > 100 µM
TGI [2]: > 100 µM
TGI [3]: > 100 µM
TGI [4]: > 100 µM
TGI [5]: > 100 µM
TGI [6]: > 100 µM
TGI [7]: > 100 µM
TGI [8]: > 100 µM
TGI [9]: > 100 µM
TGI [10]: > 100 µM
TGI [11]: > 100 µM
TGI [12]: > 100 µM
TGI [13]: > 100 µM
TGI [14]: > 100 µM
TGI [15]: > 100 µM
TGI [16]: > 100 µM
TGI [17]: > 100 µM
TGI [18]: > 100 µM
TGI [19]: > 100 µM
TGI [20]: > 100 µM
TGI [21]: > 100 µM
TGI [22]: > 100 µM
TGI [23]: > 100 µM
TGI [24]: > 100 µM
TGI [25]: > 100 µM
TGI [26]: > 100 µM
TGI [27]: > 100 µM
TGI [28]: > 100 µM
TGI [29]: > 100 µM
TGI [30]: > 100 µM
TGI [31]: > 100 µM
TGI [32]: > 100 µM
TGI [33]: > 100 µM
TGI [34]: > 100 µM
TGI [35]: > 100 µM
TGI [36]: > 100 µM
TGI [37]: > 100 µM
TGI [38]: > 100 µM
TGI [39]: > 100 µM
TGI [40]: > 100 µM
TGI [41]: > 100 µM
TGI [42]: > 100 µM
TGI [43]: > 100 µM
TGI [44]: > 100 µM
TGI [45]: > 100 µM
TGI [46]: > 100 µM
TGI [47]: > 100 µM
TGI [48]: > 100 µM
TGI [49]: > 100 µM
TGI [50]: > 100 µM
TGI [51]: > 100 µM
TGI [52]: > 100 µM
TGI [53]: > 100 µM

CC1=C(C(=O)Nc2cc(F)c(F)cc2F)C(c2ccc3c(c2)OCO3)C(C(=O)Nc2cc(F)c(F)cc2F)=C(C)N1
TGI [1]: 52.1 µM
TGI [2]: 43.5 µM
TGI [3]: 46.5 µM
TGI [4]: 62.9 µM
TGI [5]: > 100 µM
TGI [6]: > 100 µM
TGI [7]: > 100 µM
TGI [54]: 45.4 µM
TGI [8]: 42.9 µM
TGI [9]: 61.4 µM
TGI [10]: 48.9 µM
TGI [11]: 80.4 µM
TGI [12]: > 100 µM
TGI [13]: 64.8 µM
TGI [14]: 46 µM
TGI [15]: 85.3 µM
TGI [16]: 65.2 µM
TGI [17]: 71.1 µM
TGI [19]: 78.7 µM
TGI [20]: 36 µM
TGI [21]: 73.1 µM
TGI [22]: 72.7 µM
TGI [55]: 75.1 µM
TGI [23]: 26.8 µM
TGI [25]: 35.6 µM
TGI [26]: 60.6 µM
TGI [27]: 62.5 µM
TGI [28]: 39 µM
TGI [29]: > 100 µM
TGI [30]: 87 µM
TGI [31]: 55.1 µM
TGI [32]: 35.3 µM
TGI [33]: 41.6 µM
TGI [34]: 79.1 µM
TGI [36]: 52.6 µM
TGI [37]: 59.9 µM
TGI [39]: 40.6 µM
TGI [40]: 69.4 µM
TGI [41]: 52.9 µM
TGI [42]: > 100 µM
TGI [43]: 40.8 µM
TGI [44]: 65.1 µM
TGI [45]: 77.7 µM
TGI [46]: 53.8 µM
TGI [56]: 46.7 µM
TGI [57]: 25 µM
TGI [47]: > 100 µM
TGI [49]: > 100 µM
TGI [50]: 53.6 µM
TGI [51]: 67 µM
TGI [52]: 65.3 µM
TGI [53]: 71.5 µM
